These are literature values, as cited in patent publication US20120148652A1, “METHOD FOR INCORPORATING MEDICINE INTO A PLANT” (EARTH CHEMICAL CO., LTD., priority 2009, published 2012).

The conditions of this data set: 20° C., reference value.

In the case of `CC(C)=CC1C(C(=O)OC(C#N)c2cccc(Oc3ccccc3)c2)C1(C)C` (stereo not drawn) [d,d-T-cyphenothrin], the vapor pressure is on record as < 1.33×10^−7 hPa.

For `CC1(C)[C@H](C=C(Cl)Cl)[C@H]1C(=O)OCc1c(F)c(F)cc(F)c1F` [transfluthrin, Transfluthrin], the vapor pressure is 4.0×10^−6 hPa.
